Test results taken from US20070066594A1, “Crystalline forms fenoldopam mesylate” (priority 2005, published 2007).
Values belong to the molecule of their own block, whether it stands above or below them.

What was measured:
Type in all cases: physicochemical
[1] = Hygroscopicity: water content by TGA after exposure to relative humidity; conditions: for Water content (by TGA): Table 4
Method: The TGA analysis was performed with a Mettler M3 thermogravimeter with samples of about 8 mg and a scan rate of 10° C./min from 25° C. to 200° C., subtracting a blank from the sample. The TGA oven was constantly purged with nitrogen gas at a flow rate of 40 ml/min, and standard 150 μl alumina crucibles covered by lids with 1 hole were used.
(§1) TGA analysis determined that this form has a water content of 7.8 percent by weight water.
Fenoldopam Type VI was produced when a mixture of about 50 mg of fenoldopam mesylate Type I, produced in Examples 2 and 4, was exposed to 0 percent relative humidity at room temperature for 8 days.

[2] = Stability under humid conditions: crystalline form by XRD after exposure to relative humidity
Method: (§2) X-Ray powder diffraction data were obtained by using methods known in the art with a SCINTAG powder X-Ray diffractometer model X'TRA equipped with a solid-state detector. The X-Ray radiation was copper radiation, having a wavelength of 1.5418 Å. A round aluminum sample holder with zero background was used for the measurements. All peak positions are within ±0.2° 2θ.
as §1
Fenoldopam mesylate Type I was stored at 100 percent relative humidity for 8 days at room temperature. […]

[3] = Stability on drying/heating at 80° under vacuum, crystalline form by XRD; conditions: dried 16 hours at 80° under vacuum; methanesulfonate
Method: as §2
An 81.5 gram sample of the product produce in Example 17 was dried for 16 hours at 80° under vacuum, providing a yield of 81.2 grams, having a water content of 0.05 percent by weight, and an isopropanol content of 1620 ppm. An XRD analysis confirmed the product sample was fenoldopam mesylate Type II.
A 4.08 gram sample of the product of Example 22 was dried at 80° C. under vacuum for 16 hours, providing a yield of 3.95 grams, having a water content of 0.02 percent by weight and a methanol content of 766 ppm. An XRD analysis confirmed the product sample was fenoldopam mesylate Type III.

[4] = 100 percent relative humidity, more than about 7 days, room temperature

Water content (by TGA) ([1]; 0 % RH, 8 days, room temperature): 0.9
Water content (by TGA) ([1]; 20 % RH, 8 days): 7.9
Water content (by TGA) ([1]; 40 % RH, 8 days): 8.0
Water content (by TGA) ([1]; 60 % RH, 8 days): 7.9
Water content (by TGA) ([1]; 80 % RH, 8 days): 8.0
Water content (by TGA) ([1]; initial): 8.0
Time the crystalline form is stable (remains as the Type I dihydrate) on exposure to relative humidity ([2]; 0 to 100% relative humidity): more than 5 days
Crystalline form (by XRD) ([2]; 20 % RH, 8 days, room temperature): Type I
Crystalline form (by XRD) ([2]; 40 % RH, 8 days, room temperature): Type I
Crystalline form (by XRD) ([2]; 60 % RH, 8 days, room temperature): Type I
Crystalline form (by XRD) ([2]; 80 % RH, 8 days, room temperature): Type I
Crystalline form (by XRD) ([2]; 100 % RH, 8 days, room temperature, methanesulfonate): remains fenoldopam mesylate Type I
Crystalline form (by XRD) ([2]; Table 4, 0 % RH, 8 days, room temperature): Type VI
Crystalline form (by XRD) ([2]; Table 4, 20 % RH, 8 days): Type I
Crystalline form (by XRD) ([2]; Table 4, 40 % RH, 8 days): Type I
Crystalline form (by XRD) ([2]; Table 4, 60 % RH, 8 days): Type I
Crystalline form (by XRD) ([2]; Table 4, 80 % RH, 8 days): Type I
Crystalline form (by XRD) ([2]; Table 4, initial): Type I
Crystalline form (by XRD) ([2]; initial sample): Type I
SMILES: CS(=O)(=O)O.Oc1ccc(C2CNCCc3c2cc(O)c(O)c3Cl)cc1 (centres unmarked) [Type I, 6-chloro-2,3,4,5-tetrahydro-1-(4-hydroxyphenyl)-[1H]-3-benzazepine-7,8-diol methanesulfonate]

Crystalline form (by XRD) after drying [3]: Type II
SMILES: CS(=O)(=O)O.Oc1ccc(C2CNCCc3c2cc(O)c(O)c3Cl)cc1 (centres unmarked) [Type II, 6-chloro-2,3,4,5-tetrahydro-1-(4-hydroxyphenyl)-[1H]-3-benzazepine-7,8-diol methanesulfonate, reference compound]

Crystalline form (by XRD) ([2]; Table 3, 80 % RH, 8 days): Type III
Crystalline form (by XRD) ([2]; Table 3, 100 % RH, 8 days): Type III
Crystalline form (by XRD) ([2]; Table 3, initial sample): Type III
Crystalline form (by XRD) after drying [3]: Type III
SMILES: CS(=O)(=O)O.Oc1ccc(C2CNCCc3c2cc(O)c(O)c3Cl)cc1 (centres unmarked) [Type III, 6-chloro-2,3,4,5-tetrahydro-1-(4-hydroxyphenyl)-[1H]-3-benzazepine-7,8-diol methanesulfonate]

Water content (by TGA) after humidity exposure [1, 4]: 7.8 percent by weight
Crystalline form after humidity exposure (by PXRD) [2, 4]: transforms this form to Type I
SMILES: CS(=O)(=O)O.Oc1ccc(C2CNCCc3c2cc(O)c(O)c3Cl)cc1 (centres unmarked) [Type V, 6-chloro-2,3,4,5-tetrahydro-1-(4-hydroxyphenyl)-[1H]-3-benzazepine-7,8-diol methanesulfonate]
